Assay results taken from the supplement of paper PMC10307832.

Legend:
Assay in all cases: relative viability (nuclei count vs DMSO), 5 days (fraction); higher = more cells survive
NCI-H322M = system: NCI-H322M
How it was run: (§1)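 Dosing by pin tool came one day after lung cancer cell lines were seeded in 1536-well plates, using either one drug or a fixed anchor-drug dose plus five library-drug doses (not always all listed) in √10 steps. After 5 days, nuclei were counted on 4× images. Relative viability is treated-well nuclei count divided by vehicle-well nuclei count, and values are medians of duplicate plates.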

NCI-H1792 = system: NCI-H1792
How it was run: as §1

PC-14 = system: PC-14
How it was run: as §1

NCI-H1755 = system: NCI-H1755
How it was run: as §1

LXF-289 = system: LXF-289
How it was run: as §1

NCI-H1355 = system: NCI-H1355
How it was run: as §1

SW 900 = system: SW 900
How it was run: as §1

NCI-H441 = system: NCI-H441
How it was run: as §1

NCI-H3122 = system: NCI-H3122
How it was run: as §1

NCI-H520 = system: NCI-H520
How it was run: as §1

NCI-H522 = system: NCI-H522
How it was run: as §1

RERF-LC-KJ = system: RERF-LC-KJ
How it was run: as §1

NCI-H460 = system: NCI-H460
How it was run: as §1

SK-MES-1 = system: SK-MES-1
How it was run: as §1

NCI-H1651 = system: NCI-H1651
How it was run: as §1

LCLC-103H = system: LCLC-103H
How it was run: as §1

NCI-H661 = system: NCI-H661
How it was run: as §1

NCI-H1915 = system: NCI-H1915
How it was run: as §1

NCI-H727 = system: NCI-H727
How it was run: as §1

NCI-H2347 = system: NCI-H2347
How it was run: as §1

`COc1cc2nccc(Oc3ccc(NC(=O)Nc4cc(C)on4)c(Cl)c3)c2cc1OC` [Tivozanib] + CC(=O)c1c(C)c2cnc(Nc3ccc(N4CCNCC4)cn3)nc2n(C2CCCC2)c1=O [Palbociclib] (partner 0.5 µM) was tested, and the relative viability (NCI-H322M; first compound 0.005 µM) was 0.467, the relative viability (NCI-H322M; first compound 0.01581 µM) was 0.478 and the relative viability (NCI-H322M; first compound 0.05 µM) was 0.522. It also gave a relative viability (NCI-H322M; first compound 0.1581 µM) of 0.538, a relative viability (NCI-H322M; first compound 0.5 µM) of 0.513 and a relative viability (NCI-H1792; first compound 0.005 µM) of 0.686. For the same compound, the relative viability (NCI-H1792; first compound 0.01581 µM) was 0.643, the relative viability (NCI-H1792; first compound 0.05 µM) was 0.553 and the relative viability (NCI-H1792; first compound 0.1581 µM) was 0.698. It also gave a relative viability (NCI-H1792; first compound 0.5 µM) of 0.747, a relative viability (PC-14; first compound 0.005 µM) of 0.528 and a relative viability (PC-14; first compound 0.01581 µM) of 0.538. For the same compound, the relative viability (PC-14; first compound 0.05 µM) was 0.549, the relative viability (PC-14; first compound 0.1581 µM) was 0.54 and the relative viability (PC-14; first compound 0.5 µM) was 0.394. The relative viability (NCI-H1755; first compound 0.005 µM) was 0.437, the relative viability (NCI-H1755; first compound 0.01581 µM) was 0.467 and the relative viability (NCI-H1755; first compound 0.05 µM) was 0.442. The relative viability (NCI-H1755; first compound 0.1581 µM) was 0.421, the relative viability (NCI-H1755; first compound 0.5 µM) was 0.403 and the relative viability (LXF-289; first compound 0.005 µM) was 0.575. It also gave a relative viability (LXF-289; first compound 0.01581 µM) of 0.576, a relative viability (LXF-289; first compound 0.05 µM) of 0.6 and a relative viability (LXF-289; first compound 0.1581 µM) of 0.66. The relative viability (LXF-289; first compound 0.5 µM) was 0.612, the relative viability (NCI-H1355; first compound 0.005 µM) was 0.401 and the relative viability (NCI-H1355; first compound 0.01581 µM) was 0.447. The relative viability (NCI-H1355; first compound 0.05 µM) was 0.445, the relative viability (NCI-H1355; first compound 0.1581 µM) was 0.326 and the relative viability (NCI-H1355; first compound 0.5 µM) was 0.417. For the same compound, the relative viability (SW 900; first compound 0.005 µM) was 0.519, the relative viability (SW 900; first compound 0.01581 µM) was 0.552 and the relative viability (SW 900; first compound 0.05 µM) was 0.559. It also gave a relative viability (SW 900; first compound 0.5 µM) of 0.531, a relative viability (NCI-H441; first compound 0.005 µM) of 0.214 and a relative viability (NCI-H441; first compound 0.01581 µM) of 0.262. It also gave a relative viability (NCI-H441; first compound 0.05 µM) of 0.248, a relative viability (NCI-H441; first compound 0.1581 µM) of 0.216 and a relative viability (NCI-H441; first compound 0.5 µM) of 0.207. For the same compound, the relative viability (NCI-H3122; first compound 0.005 µM) was 0.164, the relative viability (NCI-H3122; first compound 0.01581 µM) was 0.207 and the relative viability (NCI-H3122; first compound 0.05 µM) was 0.187. The relative viability (NCI-H3122; first compound 0.1581 µM) was 0.212, the relative viability (NCI-H3122; first compound 0.5 µM) was 0.184 and the relative viability (NCI-H520; first compound 0.005 µM) was 0.231. For the same compound, the relative viability (NCI-H520; first compound 0.01581 µM) was 0.296, the relative viability (NCI-H520; first compound 0.05 µM) was 0.238 and the relative viability (NCI-H520; first compound 0.1581 µM) was 0.19. The relative viability (NCI-H520; first compound 0.5 µM) was 0.231, the relative viability (NCI-H522; first compound 0.005 µM) was 1 and the relative viability (NCI-H522; first compound 0.01581 µM) was 0.849. For the same compound, the relative viability (NCI-H522; first compound 0.05 µM) was 0.889, the relative viability (NCI-H522; first compound 0.1581 µM) was 0.894 and the relative viability (NCI-H522; first compound 0.5 µM) was 1.21. The relative viability (RERF-LC-KJ; first compound 0.005 µM) was 1.01, the relative viability (RERF-LC-KJ; first compound 0.01581 µM) was 1.05 and the relative viability (RERF-LC-KJ; first compound 0.05 µM) was 1.11. For the same compound, the relative viability (RERF-LC-KJ; first compound 0.1581 µM) was 1.08, the relative viability (RERF-LC-KJ; first compound 0.5 µM) was 1.04 and the relative viability (NCI-H460; first compound 0.005 µM) was 0.147. For the same compound, the relative viability (NCI-H460; first compound 0.01581 µM) was 0.196, the relative viability (NCI-H460; first compound 0.05 µM) was 0.141 and the relative viability (NCI-H460; first compound 0.1581 µM) was 0.22. It also gave a relative viability (NCI-H460; first compound 0.5 µM) of 0.209, a relative viability (SK-MES-1; first compound 0.005 µM) of 0.306 and a relative viability (SK-MES-1; first compound 0.01581 µM) of 0.345. For the same compound, the relative viability (SK-MES-1; first compound 0.05 µM) was 0.365, the relative viability (SK-MES-1; first compound 0.1581 µM) was 0.326 and the relative viability (SK-MES-1; first compound 0.5 µM) was 0.376. It also gave a relative viability (NCI-H1651; first compound 0.005 µM) of 0.524, a relative viability (NCI-H1651; first compound 0.01581 µM) of 0.516 and a relative viability (NCI-H1651; first compound 0.05 µM) of 0.522. For the same compound, the relative viability (NCI-H1651; first compound 0.1581 µM) was 0.547, the relative viability (NCI-H1651; first compound 0.5 µM) was 0.543 and the relative viability (LCLC-103H; first compound 0.005 µM) was 0.452. For the same compound, the relative viability (LCLC-103H; first compound 0.01581 µM) was 0.512, the relative viability (LCLC-103H; first compound 0.05 µM) was 0.519 and the relative viability (LCLC-103H; first compound 0.1581 µM) was 0.551. It also gave a relative viability (LCLC-103H; first compound 0.5 µM) of 0.471, a relative viability (NCI-H661; first compound 0.005 µM) of 0.401 and a relative viability (NCI-H661; first compound 0.01581 µM) of 0.387. For the same compound, the relative viability (NCI-H661; first compound 0.05 µM) was 0.422, the relative viability (NCI-H661; first compound 0.1581 µM) was 0.409 and the relative viability (NCI-H661; first compound 0.5 µM) was 0.387. It also gave a relative viability (NCI-H1915; first compound 0.005 µM) of 0.537, a relative viability (NCI-H1915; first compound 0.01581 µM) of 0.553 and a relative viability (NCI-H1915; first compound 0.05 µM) of 0.538. The relative viability (NCI-H1915; first compound 0.1581 µM) was 0.484, the relative viability (NCI-H1915; first compound 0.5 µM) was 0.503 and the relative viability (NCI-H727; first compound 0.005 µM) was 0.659. The relative viability (NCI-H727; first compound 0.01581 µM) was 0.659, the relative viability (NCI-H727; first compound 0.05 µM) was 0.574 and the relative viability (NCI-H727; first compound 0.1581 µM) was 0.637. For the same compound, the relative viability (NCI-H727; first compound 0.5 µM) was 0.7, the relative viability (NCI-H2347; first compound 0.005 µM) was 0.48 and the relative viability (NCI-H2347; first compound 0.01581 µM) was 0.424. The relative viability (NCI-H2347; first compound 0.05 µM) was 0.462, the relative viability (NCI-H2347; first compound 0.1581 µM) was 0.478 and the relative viability (NCI-H2347; first compound 0.5 µM) was 0.422.
